Experimental data taken from the NIST ThermoML archive (doi:10.1021/je049762q).
Numbers after ± are expanded uncertainties.

Assay: molar heat capacity at constant pressure
Conditions: 101.33 kPa

Clc1ccc(Cl)cc1 [1,4-dichlorobenzene]
Conditions	molar heat capacity at constant pressure [J/K/mol]
5.11 K, Crystal 3	0.29 ± 0.03
6.43 K, Crystal 3	0.42 ± 0.03
7.21 K, Crystal 3	0.83 ± 0.04
7.89 K, Crystal 3	1.18 ± 0.04
9.58 K, Crystal 3	2.1 ± 0.05
10 K, Crystal 3	2.33 ± 0.06
11.66 K, Crystal 3	3.22 ± 0.07
13.08 K, Crystal 3	4.5 ± 0.09
14.5 K, Crystal 3	6.12 ± 0.11
15 K, Crystal 3	6.7 ± 0.11
15.94 K, Crystal 3	7.81 ± 0.12
18.49 K, Crystal 3	10.86 ± 0.15
19 K, Crystal 3	11.19 ± 0.15
20 K, Crystal 3	12.69 ± 0.17
20.21 K, Crystal 3	12.96 ± 0.17
21.65 K, Crystal 3	14.62 ± 0.17
22.92 K, Crystal 3	16.12 ± 0.18
24.05 K, Crystal 3	17.45 ± 0.19
25 K, Crystal 3	18.52 ± 0.19
25.09 K, Crystal 3	18.62 ± 0.19
26.05 K, Crystal 3	19.66 ± 0.19
28.53 K, Crystal 3	21.78 ± 0.18
30 K, Crystal 3	23.27 ± 0.17
32.77 K, Crystal 3	26.1 ± 0.19
34.99 K, Crystal 3	28.16 ± 0.19
36.99 K, Crystal 3	29.91 ± 0.2
38.82 K, Crystal 3	31.33 ± 0.21
40 K, Crystal 3	32.27 ± 0.21
42.09 K, Crystal 3	33.94 ± 0.22
44.35 K, Crystal 3	35.66 ± 0.22
46.46 K, Crystal 3	37.19 ± 0.23
48.44 K, Crystal 3	38.2 ± 0.23
50 K, Crystal 3	39.36 ± 0.24
52.09 K, Crystal 3	40.68 ± 0.24
53.8 K, Crystal 3	41.66 ± 0.25
55.44 K, Crystal 3	42.56 ± 0.25
57.02 K, Crystal 3	43.48 ± 0.25
58.55 K, Crystal 3	44.32 ± 0.26
60 K, Crystal 3	45.13 ± 0.26
60.03 K, Crystal 3	45.14 ± 0.26
63.79 K, Crystal 3	47.24 ± 0.27
66.94 K, Crystal 3	48.83 ± 0.28
69.94 K, Crystal 3	50.35 ± 0.28
70 K, Crystal 3	50.38 ± 0.28
72.81 K, Crystal 3	51.62 ± 0.29
80 K, Crystal 3	55.34 ± 0.3
82.41 K, Crystal 3	56.53 ± 0.31
85.29 K, Crystal 3	57.82 ± 0.31
88.14 K, Crystal 3	59.02 ± 0.32
90 K, Crystal 3	59.86 ± 0.52
91.01 K, Crystal 3	60.3 ± 0.52
93.9 K, Crystal 3	61.52 ± 0.52
96.8 K, Crystal 3	62.72 ± 0.53
99.71 K, Crystal 3	63.94 ± 0.53
100 K, Crystal 3	64.06 ± 0.53
102.62 K, Crystal 3	65.39 ± 0.53
103.2 K, Crystal 3	65.58 ± 0.53
105.55 K, Crystal 3	66.59 ± 0.53
107.33 K, Crystal 3	67.31 ± 0.53
108.49 K, Crystal 3	67.79 ± 0.54
110 K, Crystal 3	68.42 ± 0.54
111.35 K, Crystal 3	68.99 ± 0.54
111.43 K, Crystal 3	69.01 ± 0.54
114.39 K, Crystal 3	70.21 ± 0.54
115.28 K, Crystal 3	70.59 ± 0.54
117.35 K, Crystal 3	71.41 ± 0.54
119.12 K, Crystal 3	72.17 ± 0.54
120 K, Crystal 3	72.49 ± 0.55
120.32 K, Crystal 3	72.62 ± 0.55
122.89 K, Crystal 3	73.69 ± 0.55
123.3 K, Crystal 3	73.82 ± 0.55
126.28 K, Crystal 3	75.05 ± 0.55
126.6 K, Crystal 3	75.16 ± 0.55
129.27 K, Crystal 3	76.26 ± 0.55
130 K, Crystal 3	76.54 ± 0.56
130.24 K, Crystal 3	76.63 ± 0.55
132.26 K, Crystal 3	77.49 ± 0.56
133.83 K, Crystal 3	78.06 ± 0.56
135.26 K, Crystal 3	78.7 ± 0.56
137.36 K, Crystal 3	79.47 ± 0.56
138.27 K, Crystal 3	79.99 ± 0.56
140 K, Crystal 3	80.56 ± 0.56
140.85 K, Crystal 3	80.87 ± 0.56
141.27 K, Crystal 3	81.11 ± 0.56
144.27 K, Crystal 3	82.33 ± 0.56
147.28 K, Crystal 3	83.54 ± 0.57
147.69 K, Crystal 3	83.58 ± 0.57
150 K, Crystal 3	84.62 ± 0.56
150.29 K, Crystal 3	84.72 ± 0.57
151.05 K, Crystal 3	84.88 ± 0.57
153.31 K, Crystal 3	85.92 ± 0.57
156.33 K, Crystal 3	87.11 ± 0.57
159.35 K, Crystal 3	88.32 ± 0.58
160 K, Crystal 3	88.57 ± 0.57
162.38 K, Crystal 3	89.5 ± 0.58
165.4 K, Crystal 3	90.68 ± 0.58
168.43 K, Crystal 3	91.85 ± 0.58
170 K, Crystal 3	92.45 ± 0.58
171.47 K, Crystal 3	93.01 ± 0.59
177.53 K, Crystal 3	95.43 ± 0.59
180 K, Crystal 3	96.42 ± 0.59
180.53 K, Crystal 3	96.63 ± 0.59
183.51 K, Crystal 3	97.84 ± 0.6
186.47 K, Crystal 3	98.95 ± 0.6
188.91 K, Crystal 3	99.81 ± 0.6
189.41 K, Crystal 3	100.08 ± 0.6
190 K, Crystal 3	100.33 ± 0.6
191.9 K, Crystal 3	101.04 ± 0.6
192.33 K, Crystal 3	101.32 ± 0.6
194.87 K, Crystal 3	102.23 ± 0.6
195.23 K, Crystal 3	102.39 ± 0.6
197.82 K, Crystal 3	103.42 ± 0.61
198.11 K, Crystal 3	103.53 ± 0.61
200 K, Crystal 3	104.28 ± 0.61
200.75 K, Crystal 3	104.57 ± 0.61
200.98 K, Crystal 3	104.65 ± 0.61
203.66 K, Crystal 3	105.76 ± 0.61
206.55 K, Crystal 3	106.91 ± 0.61
209.43 K, Crystal 3	108.06 ± 0.62
210 K, Crystal 3	108.29 ± 0.61
212.28 K, Crystal 3	109.21 ± 0.62
215.03 K, Crystal 3	110.08 ± 0.62
215.12 K, Crystal 3	110.42 ± 0.62
217.8 K, Crystal 3	111.29 ± 0.62
217.94 K, Crystal 3	111.43 ± 0.62
220 K, Crystal 3	112.15 ± 0.62
220.54 K, Crystal 3	112.37 ± 0.62
220.75 K, Crystal 3	112.46 ± 0.62
223.28 K, Crystal 3	113.45 ± 0.63
225.99 K, Crystal 3	114.54 ± 0.63
226.32 K, Crystal 3	114.68 ± 0.63
228.7 K, Crystal 3	115.59 ± 0.63
229.08 K, Crystal 3	115.81 ± 0.63
230 K, Crystal 3	116.16 ± 0.63
231.39 K, Crystal 3	116.65 ± 0.63
231.82 K, Crystal 3	116.88 ± 0.63
234.07 K, Crystal 3	117.7 ± 0.64
234.55 K, Crystal 3	117.96 ± 0.64
236.73 K, Crystal 3	118.76 ± 0.64
237.27 K, Crystal 3	119.01 ± 0.64
239.38 K, Crystal 3	119.79 ± 0.64
239.97 K, Crystal 3	119.98 ± 0.64
240 K, Crystal 3	119.99 ± 0.64
242.02 K, Crystal 3	120.79 ± 0.64
242.66 K, Crystal 3	121.05 ± 0.64
244.65 K, Crystal 3	121.76 ± 0.64
245.34 K, Crystal 3	122.11 ± 0.64
247.26 K, Crystal 3	122.73 ± 0.65
248 K, Crystal 3	123.17 ± 0.65
249.87 K, Crystal 3	123.71 ± 0.65
250 K, Crystal 3	123.77 ± 0.65
250.66 K, Crystal 3	124.06 ± 0.65
252.46 K, Crystal 3	124.73 ± 0.65
253.3 K, Crystal 3	125.12 ± 0.65
255.04 K, Crystal 3	125.74 ± 0.65
257.61 K, Crystal 3	126.76 ± 0.65
260 K, Crystal 3	127.72 ± 0.66
260.16 K, Crystal 3	127.77 ± 0.66
262.71 K, Crystal 3	128.79 ± 0.66
265.24 K, Crystal 3	129.78 ± 0.66
267.76 K, Crystal 3	130.84 ± 0.66
270 K, Crystal 3	131.65 ± 0.67
270.28 K, Crystal 3	131.78 ± 0.66
272.78 K, Crystal 3	132.68 ± 0.67
275 K, Crystal 2	134.45 ± 0.67
275 K, Crystal 3	133.61 ± 0.67
280 K, Crystal 2	135.94 ± 0.67
281.42 K, Crystal 2	136.31 ± 0.67
283.88 K, Crystal 2	137.36 ± 0.67
286.32 K, Crystal 2	138.34 ± 0.68
290 K, Crystal 2	139.78 ± 0.68
292.1 K, Crystal 2	140.78 ± 0.68
293.87 K, Crystal 2	141.42 ± 0.68
296.42 K, Crystal 2	142.86 ± 0.69
298.15 K, Crystal 2	143.78 ± 0.69
298.96 K, Crystal 2	144.24 ± 0.69
300 K, Crystal 2	144.8 ± 0.69
301.51 K, Crystal 2	145.69 ± 0.69
306 K, Crystal 1	147.86 ± 0.7
306 K, Crystal 2	147.75 ± 0.7
308.59 K, Crystal 1	148.61 ± 0.7
310 K, Crystal 1	149.45 ± 0.7
311.33 K, Crystal 1	150.45 ± 0.7
314.11 K, Crystal 1	151.51 ± 0.7
316.65 K, Crystal 1	152.8 ± 0.71
319.2 K, Crystal 1	154.18 ± 0.71
320 K, Crystal 1	154.72 ± 0.71
321.74 K, Crystal 1	155.8 ± 0.71
326.24 K, Crystal 1	158 ± 0.71
326.24 K, Liquid	175.98 ± 0.75
330 K, Liquid	176.87 ± 0.76
331.52 K, Liquid	177.33 ± 0.75
332.72 K, Liquid	177.51 ± 0.76
333.8 K, Liquid	177.86 ± 0.76
335.4 K, Liquid	178.04 ± 0.76
336.04 K, Liquid	178.35 ± 0.76
337.95 K, Liquid	178.72 ± 0.76
338.28 K, Liquid	178.83 ± 0.76
340 K, Liquid	179.23 ± 0.76
340.5 K, Liquid	179.25 ± 0.76
340.53 K, Liquid	179.38 ± 0.76
342.77 K, Liquid	179.91 ± 0.76
343.05 K, Liquid	179.96 ± 0.76
345.6 K, Liquid	180.47 ± 0.76
348.14 K, Liquid	181.07 ± 0.76
350 K, Liquid	181.59 ± 0.77
350.69 K, Liquid	181.7 ± 0.76
353.24 K, Liquid	182.31 ± 0.76
355.79 K, Liquid	183.1 ± 0.77
358.34 K, Liquid	183.5 ± 0.77
360 K, Liquid	183.95 ± 0.77
360.89 K, Liquid	184.17 ± 0.77
363.44 K, Liquid	184.8 ± 0.77
368.54 K, Liquid	185.95 ± 0.77
370 K, Liquid	186.3 ± 0.77
371.09 K, Liquid	186.69 ± 0.77
373.64 K, Liquid	187.14 ± 0.77
376.2 K, Liquid	187.74 ± 0.78
380 K, Liquid	188.66 ± 0.77
